# Measurements as given in patent US20220175638A1, “CELL ACTIVATOR” (Shiseido Company, Ltd., priority 2019, published 2022).
# How the values were obtained:
# [1] = test system: Human skin fibroblasts; test: Experiment 2: cellular activity at different C-phycocyanin concentrations and UV doses; format: cell-based; settings: UV 0, 10, 25, 50, 75 and 100 mJ/cm^2, FIG. 3
# Method: (§1) 1. Human skin fibroblasts (purchased from Kurabo) and human skin keratinocytes (purchased from Kurabo or PromoCell) were used. A cell suspension (1 mL) stored with liquid nitrogen was placed in a hot water bath (37° C.) and thawed until small ice pellets remained, and then diluted with 9 mL of warm medium. 2. The diluted suspension was gently mixed and transferred to a T75 flask, and incubated overnight at 37° C. 3. On the following day, the medium was exchanged with 10 mL of fresh medium. 4. The medium was periodically exchanged (once every 2 days for fibroblasts, or once every 2 to 3 days for keratinocytes), while continuing growth of the cells. During this time, a microscope was used to observe the cells and to confirm that the cells had proliferated with the proper form. 5. Once the cells reached approximately 80% confluence, they were subcultured. Subculturing of the cells was carried out by rinsing once in 10 mL of warm PBS, after which 5 mL of warm trypsin was added to the T75 flask to cover the bottom of the flask with the trypsin solution, and the mixture was suctioned after standing for 1 minute at room temperature. 6. The flask was set in an oven at 37° C. for 2 minutes (maximum) for fibroblasts and 7 minutes (maximum) for keratinocytes. A microscope was used to observe the cells, confirming that they were small and elliptical. 7. […]
# [2] = test system: Human skin fibroblasts; test: Experiment 3: restoration of UV irradiation-reduced cellular activity; format: cell-based; settings: pre-irradiation 400 mJ/cm^2 without substance, then UV 0-200 mJ/cm^2 through 0.4% or 2% C-phycocyanin; FIG. 5
# Method: as §1
substance,measurement,setting,value
C-phycocyanin,cellular activity (relative fluorescence intensity),[1]; 0.4% C-phycocyanin,reduction in cellular activity was inhibited even under UV irradiation
same,cellular activity (relative fluorescence intensity),[1]; 2% C-phycocyanin,accelerated cellular activity even above the level with no UV irradiation
same,cellular activity of cells with previously lowered activity,[2],cellular activity was restored
